Assay results from patent US20090170762A1, “Treatment of Diabetes Related Obesity” (UUTech Limited, priority 2005, published 2009).
Ends that are not written are not given here. * marks the point of attachment. Palmitoyl = CCCCCCCCCCCCCCCC(=O)*

Experiments:
DPP-IV = DPP-IV (Homo sapiens, UniProt P27487); experiment: Degradation of GIP and Glu3-substituted GIP analogs by DPP-IV (HPLC); type: in vitro ADME; details: for half-life at 2 μm: DPP-IV enzyme (5 mU) in buffer, pH 7.8, incubation with DPP-IV, unit not given (time points in hrs), read-out: Estimated Half-Life (converted); for Intact Peptide Remaining (%) 0 hrs. / remaining at 2 h, 2 μm / remaining at 4 h, 2 μm / remaining at 8 h, 2 μm: incubation with DPP-IV (5 mU), 37°C; for Intact Peptide Remaining (%) 0 hrs.: pH 7.8, 0 hrs; for remaining at 2 h, 2 μm / remaining at 4 h, 2 μm / remaining at 8 h, 2 μm: isolated DPP-IV enzyme (5 mU); for remaining at 2 h, 2 μm: pH 7.8, 2 hrs, read-out: Intact Peptide Remaining (%) 2 hrs.; for remaining at 4 h, 2 μm: pH 7.8, 4 hrs, read-out: Intact Peptide Remaining (%) 4 hrs.; for remaining at 8 h, 2 μm: pH 7.8, 8 hrs, read-out: Intact Peptide Remaining (%) 8 hrs.
human GIP-R = target: T1, human GIP-R (Homo sapiens, UniProt P48546); experiment: Cyclic AMP production in GIP-R transfected CHL cells; type: cell-based; details: for inhibition of GIP-stimulated cAMP production: in presence of GIP (10^-7 m)
T1 construct: expressed in transfected cells; host or cells: Chinese Hamster Lung (CHL) fibroblast cells, stably transfected
T1 sequence (P48546 22-466): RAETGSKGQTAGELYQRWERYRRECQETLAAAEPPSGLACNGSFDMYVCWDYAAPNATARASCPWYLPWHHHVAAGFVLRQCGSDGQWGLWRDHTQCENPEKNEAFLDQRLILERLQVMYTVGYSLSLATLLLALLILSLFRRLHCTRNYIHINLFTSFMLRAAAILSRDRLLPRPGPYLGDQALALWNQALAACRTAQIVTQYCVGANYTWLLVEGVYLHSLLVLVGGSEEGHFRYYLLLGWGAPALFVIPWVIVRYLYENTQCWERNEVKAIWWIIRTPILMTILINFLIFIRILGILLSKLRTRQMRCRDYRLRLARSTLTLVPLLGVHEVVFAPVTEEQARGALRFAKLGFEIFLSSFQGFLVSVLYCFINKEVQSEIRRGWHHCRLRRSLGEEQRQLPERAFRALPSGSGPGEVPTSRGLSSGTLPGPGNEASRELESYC
Method: Tissue Culture. […] (v/v) fetal bovine serum, 1% (v/v) antibiotics (100 U/ml penicillin, 0.1 mg/ml streptomycin) (all from Gibco, Paisley, Strathclyde, Scotland). BRIN-BD11 cells were cultured in RPMI-1640 tissue culture medium containing 10% (v/v) fetal bovine serum, 1% (v/v) antibiotics (100 U/ml penicillin, 0.1 mg/ml streptomycin) and 11.1 mm glucose. The origin and secretory characteristics of these cells have been described in detail previously (McClenaghan, N. H. et al., 1996, Diabetes 45:1132-1140). The cells were maintained in sterile tissue culture flasks (Corning Glass Works, Sunderland, UK) at 37° C. in an atmosphere of 5% CO2 and 95% air using a LEEC incubator (Laboratory Technical Engineering, Nottingham, UK).
Methods. […] The culture medium was removed and cells subsequently washed twice with 2 ml ice-cold HBS buffer (130 mm NaCl, 20 mm HEPES, 0.9 mm NaHPO4, 0.8 mm MgSO4, 5.4 mm KCl, 1.8 mm CaCl2, 5.6 mm glucose and 25 μm phenol red) (pH 7.4). […] The medium was subsequently removed and the cells lysed with […] of lysing solution (5% TCA, 3% SDS, 92% H2O, also containing 0.1 mm unlabelled cAMP and 0.1 mm unlabelled ATP) (Sigma, Poole, Dorset, UK). The plates were then left on a shaker at room temperature for 30 minutes and tritiated cAMP formation determined by column chromatography using Dowex and alumina ion exchange columns (BioRad Life Science Research, Alpha Analytical, Larne, UK) as previously described (Gault, V. A. et al 2002, Biochem. J. 367:913-920).

BRIN-BD11 cells = experiment: Insulin secretion from BRIN-BD11 cells; type: cell-based; details: for Maximal insulin response (% GIP max) / Insulin response in presence of 10^-7 M GIP (% GIP max): BRIN-BD11 cells, 5.6 mm glucose; for Maximal insulin response (% GIP max): 20 min; for Insulin response in presence of 10^-7 M GIP (% GIP max): in presence of 10^-7 M native GIP
Method: Tissue Culture. Chinese Hamster Lung (CHL) fibroblast cells stably transfected with the human GIP-R were cultured in DMEM tissue culture medium containing 10%. (v/v) fetal bovine serum, 1% (v/v) antibiotics (100 U/ml penicillin, 0.1 mg/ml streptomycin) (all from Gibco, Paisley, Strathclyde, Scotland). BRIN-BD11 cells were cultured in RPMI-1640 tissue culture medium containing 10% (v/v) fetal bovine serum, 1% (v/v) antibiotics (100 U/ml penicillin, 0.1 mg/ml streptomycin) and 11.1 mm glucose. The origin and secretory characteristics of these cells have been described in detail previously (McClenaghan, N. H. et al., 1996, Diabetes 45:1132-1140). The cells were maintained in sterile tissue culture flasks (Corning Glass Works, Sunderland, UK) at 37° C. in an atmosphere of 5% CO2 and 95% air using a LEEC incubator (Laboratory Technical Engineering, Nottingham, UK).
Methods. Insulin release from BRIN-BD11 cells was determined by use of cell monolayers as described previously (Gault, V. A. et al. 2002, Biochem. J. 367:913-920). In brief, BRIN-BD11 cells were seeded into 24-well plates (Nunc, Roskilde, Denmark) at a density of 1.5×10^5 cells per well and allowed to attach overnight in RPMI-1640 culture medium at 37° C. Acute tests for insulin secretion were preceded by 40 minutes pre-incubation at 37° C. in 1.0 ml Krebs Ringer Bicarbonate Buffer (KRBB, 115 mm NaCl, 4.7 mm KCl, 1.28 mm CaCl2, 1.2 mM MgSO4, 1.2 mm KH2PO4, 25 mM HEPES and 10 mm NaHCO3; pH 7.4 with NaOH) supplemented with 0.1% (w/v) BSA and 1.1 mM glucose. […] After 20 minutes incubation, the buffer was removed and used for measurement of insulin by radioimmunoassay (Flatt, P. R. and Bailey, C. J., 1981, Diabetologia 5:573-577).

ob/ob mice [1] = experiment: 14 once-daily injections of GIP analogues in ob/ob mice; type: in vivo, mouse; details: 14 days daily, insulin 50 U/kg
Method: (§1) Animals. Obese diabetic (ob/ob) mice derived from the colony maintained at Aston University, UK (Bailey C. J. et al., 1982, Int. J. Obes. 6:11-21) were used at 14-18 weeks of age. Animals were age-matched, divided into groups and housed individually in an air-conditioned room at 22±2° C. with a 12 hour light: 12 hour dark cycle (08:00-20:00 hr). Drinking water and a standard rodent maintenance diet (Trouw Nutrition, Cheshire, UK) were freely available. All animal experiments were carried out in accordance with the UK Animals (Scientific Procedures) Act 1986.
Methods. […] Intraperitoneal glucose tolerance (18 mmol/kg body wt) and insulin sensitivity (50 U/kg body wt) tests were performed at the end of the study period. Blood samples taken from the cut tip of the tail vein of conscious mice at the times indicated in the Figures were immediately centrifuged using a Beckman microcentrifuge (Beckman Instruments, UK) for 30 seconds at 13,000×g. The resulting plasma was then aliquoted into fresh Eppendorf tubes and stored at −20° C. prior to glucose and insulin determinations.

ob/ob mice [2] = experiment: Acute antihyperglycaemic and insulin releasing activity with glucose and native GIP in ob/ob mice; type: in vivo, mouse; details: 25 nmol/kg i.p. with GIP and glucose 18 mmol/kg, vs native GIP
Method: as §1
Biochemical analysis. Plasma glucose was assayed by an automated glucose oxidase procedure ([…]) using a Beckman Glucose Analyzer II (Beckman Instruments, Galway, Ireland). Plasma insulin was assayed by radioimmunoassay.
Methods. […] All test solutions were administered in a final volume of 5 ml/kg body weight. Blood samples were collected from the cut tip of the tail vein of conscious mice into chilled fluoride/heparin coated glucose microcentrifuge tubes (Sarstedt, Numbrecht, Germany) immediately prior to injection and at 15, 30 and 60 minutes post injection. Blood samples were immediately centrifuged using a Beckmnan microcentrifuge (Beckman Instruments, High Wycombe, Buckinghamshire, UK) for 30 seconds at 13,000×g. Plasma glucose was assayed using a Beckman Glucose Analyzer n (Beckman Instruments, High Wycombe, Buckinghamshire, UK) (Stevens, J. F., 1971, Clin. Chim. Acta 32:199-201) and plasma insulin was determined by RIA (Flatt, P. R. and Bailey, C. J., 1981, Diabetologia 5:573-577). All animal studies were carried out in accordance with the UK Animals (Scientific Procedures) Act 1986.

DPP-IV, sequence (P27487 whole entry, species assumed): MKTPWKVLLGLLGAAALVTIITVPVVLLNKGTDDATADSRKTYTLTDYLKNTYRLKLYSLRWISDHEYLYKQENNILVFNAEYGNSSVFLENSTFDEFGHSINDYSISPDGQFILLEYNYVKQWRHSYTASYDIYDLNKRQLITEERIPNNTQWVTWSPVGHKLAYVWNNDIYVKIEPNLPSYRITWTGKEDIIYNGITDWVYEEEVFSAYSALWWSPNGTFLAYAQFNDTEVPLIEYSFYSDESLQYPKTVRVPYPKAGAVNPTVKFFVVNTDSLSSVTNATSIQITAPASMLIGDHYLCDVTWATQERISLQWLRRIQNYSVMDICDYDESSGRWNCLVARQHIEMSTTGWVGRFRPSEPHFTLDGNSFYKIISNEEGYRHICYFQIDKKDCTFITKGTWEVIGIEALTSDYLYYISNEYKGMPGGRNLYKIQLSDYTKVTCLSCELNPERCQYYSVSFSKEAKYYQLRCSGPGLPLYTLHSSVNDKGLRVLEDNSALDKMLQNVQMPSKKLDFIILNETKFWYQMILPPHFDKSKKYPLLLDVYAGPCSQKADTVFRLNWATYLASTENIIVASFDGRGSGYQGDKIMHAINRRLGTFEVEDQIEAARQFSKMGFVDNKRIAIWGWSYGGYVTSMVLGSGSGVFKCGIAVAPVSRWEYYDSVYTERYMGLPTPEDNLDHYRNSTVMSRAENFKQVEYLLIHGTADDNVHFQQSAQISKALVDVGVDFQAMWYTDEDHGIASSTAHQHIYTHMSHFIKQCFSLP

Substance: YAPGTFISDYSIAMDK(Palmitoyl)IHQQDFVNWLLAQKGKKNDWKHNITQ [(Pro^3)LysPAL^16GIP]
- half-life at 2 μm (DPP-IV): > 8 h
- Intact Peptide Remaining (%) 0 hrs. (DPP-IV): 100%
- remaining at 2 h, 2 μm (DPP-IV): 100%
- remaining at 4 h, 2 μm (DPP-IV): 100%
- remaining at 8 h, 2 μm (DPP-IV): 100%
- EC50 (human GIP-R): 870 nM
- cAMP response in presence of 10^-7 M GIP (% GIP max) (human GIP-R; in presence of 10^-7 M native GIP): 63 ± 5 % GIP max
- inhibition of GIP-stimulated cAMP production (human GIP-R): similarly inhibited
- Maximal insulin response (% GIP max) (BRIN-BD11 cells): 48 ± 4 % GIP max
- Insulin response in presence of 10^-7 M GIP (% GIP max) (BRIN-BD11 cells): 61 ± 3 % GIP max
- hypoglycemic action of insulin (ob/ob mice [1]): significantly augmented

Substance: YAYGTFISDYSIAMDKIHQQDFVNWLLAQKGKKNDWKHNITQ [(Tyr^3)GIP]
- half-life at 2 μm (DPP-IV): 1.5 h
- Intact Peptide Remaining (%) 0 hrs. (DPP-IV): 100%
- remaining at 2 h, 2 μm (DPP-IV): 34.1 ± 4.1%
- remaining at 4 h, 2 μm (DPP-IV): 6.3 ± 3.1%
- remaining at 8 h, 2 μm (DPP-IV): 0%
- EC50 (human GIP-R): 1.5 nM
- remaining activity at 0.1 µM (human GIP-R; CHL, read-out: cAMP response in presence of 10^-7 M GIP (% GIP max)): 76 ± 4%
- inhibition of GIP-stimulated cAMP production (human GIP-R): did not significantly inhibit
- Maximal insulin response (% GIP max) (BRIN-BD11 cells): 75 ± 4 % GIP max
- Insulin response in presence of 10^-7 M GIP (% GIP max) (BRIN-BD11 cells): 93 ± 2 % GIP max
- effect on GIP-stimulated insulin secretion (BRIN-BD11 cells; in presence of GIP (10^-7 m)): did not significantly affect
- plasma glucose and insulin profiles when administered together with native GIP (ob/ob mice [2]): significantly inhibited the action of GIP
